≈ marks a conversion by molar mass, not a printed value.
How the values were obtained:
Aspergillus niger = assay: Antifungal activity against Aspergillus niger by agar well diffusion method; format: functional; conditions: for MIC: Aspergillus niger
Candida albicans = assay: Antifungal activity against Candida albicans by agar well diffusion method; format: functional; conditions: for MIC: Candida albicans
Staphylococcus aureus = assay: Antibacterial activity against Staphylococcus aureus by agar well diffusion method; format: functional; conditions: for MIC: Staphylococcus aureus
[1] = system: Staphylococcus epidermidis; assay: Antibacterial activity against Staphylococcus epidermidis by agar well diffusion method; format: functional; conditions: for MIC: Staphylococcus epidermidis
Pseudomonas aeruginosa = assay: Antibacterial activity against Pseudomonas aeruginosa by agar well diffusion method; format: functional; conditions: for MIC: Pseudomonas aeruginosa
Escherichia coli = assay: Antibacterial activity against Escherichia coli by agar well diffusion method; format: functional; conditions: for MIC: Escherichia coli
[2] = Antioxidant activity assessed as Mo(6) reduction activity after 60 min by UV-Vis spectrophotometric analysis; format: functional
[3] = Antioxidant activity assessed as H2O2 scavenging activity after 10 min by UV-Vis spectrophotometric analysis; format: functional
[4] = Anti-inflammatory activity assessed as inhibition of albumin denaturation incubated for 15 min at 27 degC followed by incubation at 60 degC for 10 min by UV-Vis spectrophotometric analysis

Row | Compound | -logMIC (Aspergillus niger) | MIC (Aspergillus niger) [µg/mL] | -logMIC (Candida albicans) | MIC (Candida albicans) [µg/mL] | -logMIC (Staphylococcus aureus) | MIC (Staphylococcus aureus) [µg/mL] | -logMIC [1] | MIC [1] [µg/mL] | -logMIC (Pseudomonas aeruginosa) | MIC (Pseudomonas aeruginosa) [µg/mL] | -logMIC (Escherichia coli) | MIC (Escherichia coli) [µg/mL] | IC50 [2] [µg/mL] | IC50 [3] [µg/mL] | IC50 [4] [µg/mL]
1 | O=C(N/N=C/c1ccccc1O)c1ccc(Cl)cc1 | 1 | 10 (≈ 36.4 µM) | 1.74 | 55 (≈ 200 µM) | 1.255 | 18 (≈ 65.5 µM) | 1.53 | 34 (≈ 124 µM) | 1.09 | 12.5 (≈ 45.5 µM) | 1.301 | 20 (≈ 72.8 µM) | 50 (≈ 182 µM) | 34 (≈ 124 µM) | 95 (≈ 346 µM)
2 | O=C(N/N=C/c1ccccc1)c1ccccc1C(=O)c1ccccc1 | – | – | 2 | 100 (≈ 305 µM) | 1.477 | 30 (≈ 91.4 µM) | 1.69 | 50 (≈ 152 µM) | 0.81 | 6.5 (≈ 19.8 µM) | 1.924 | 84 (≈ 256 µM) | 49 (≈ 149 µM) | 152 (≈ 463 µM) | 105 (≈ 320 µM)
3 | O=C(N/N=C/c1ccc(Cl)cc1)c1ccccc1C(=O)c1ccccc1 | 1.3 | 20 (≈ 55.1 µM) | 2.301 | 200 (≈ 551 µM) | 1.531 | 34 (≈ 93.7 µM) | 1.69 | 50 (≈ 138 µM) | 1.09 | 12.5 (≈ 34.5 µM) | 1.924 | 84 (≈ 232 µM) | 20 (≈ 55.1 µM) | 109 (≈ 300 µM) | 54 (≈ 149 µM)
4 | O=C(N/N=C/c1ccc([N+](=O)[O-])cc1)c1ccccc1C(=O)c1ccccc1 | 1.4 | 25 (≈ 67 µM) | 1.924 | 84 (≈ 225 µM) | 1.531 | 34 (≈ 91.1 µM) | 1.47 | 30 (≈ 80.3 µM) | 1.3 | 20 (≈ 53.6 µM) | 1.397 | 25 (≈ 67 µM) | 18 (≈ 48.2 µM) | 125 (≈ 335 µM) | 17 (≈ 45.5 µM)
5 | Cc1ccc(/C=N/NC(=O)c2ccccc2C(=O)c2ccccc2)cc1 | – | – | 1.698 | 50 (≈ 146 µM) | 1.531 | 34 (≈ 99.3 µM) | 2.3 | 200 (≈ 584 µM) | 1.4 | 25 (≈ 73 µM) | 2.225 | 168 (≈ 491 µM) | 5 (≈ 14.6 µM) | 84 (≈ 245 µM) | 12 (≈ 35 µM)
6 | COc1cc(/C=N/NC(=O)c2ccccc2C(=O)c2ccccc2)ccc1O | 1.4 | 25 (≈ 66.8 µM) | 1.301 | 20 (≈ 53.4 µM) | 1.531 | 34 (≈ 90.8 µM) | 2.3 | 200 (≈ 534 µM) | 1.69 | 50 (≈ 134 µM) | 1.698 | 50 (≈ 134 µM) | 70 (≈ 187 µM) | 79 (≈ 211 µM) | 10 (≈ 26.7 µM)
7 | O=C(N/N=C/c1ccc(O)cc1)c1ccccc1C(=O)c1ccccc1 | 1.92 | 84 (≈ 244 µM) | 2 | 100 (≈ 290 µM) | 1.531 | 34 (≈ 98.7 µM) | 1.92 | 84 (≈ 244 µM) | 1.4 | 25 (≈ 72.6 µM) | 1.903 | 80 (≈ 232 µM) | 100 (≈ 290 µM) | 91 (≈ 264 µM) | 20 (≈ 58.1 µM)
8 | O=C(N/N=C/c1ccccc1[N+](=O)[O-])c1ccccc1C(=O)c1ccccc1 | – | – | 1.397 | 25 (≈ 67 µM) | 1.255 | 18 (≈ 48.2 µM) | 1.47 | 30 (≈ 80.3 µM) | 1.4 | 25 (≈ 67 µM) | 1.301 | 20 (≈ 53.6 µM) | 42 (≈ 112 µM) | 101 (≈ 271 µM) | 75 (≈ 201 µM)
9 | O=C(N/N=C/c1ccccc1O)c1ccccc1C(=O)c1ccccc1 | 1.53 | 34 (≈ 98.7 µM) | 2 | 100 (≈ 290 µM) | 1.301 | 20 (≈ 58.1 µM) | 1.53 | 34 (≈ 98.7 µM) | 1.09 | 12.5 (≈ 36.3 µM) | 1.531 | 34 (≈ 98.7 µM) | 15 (≈ 43.6 µM) | 132 (≈ 383 µM) | 35 (≈ 102 µM)
10 | COc1cc(/C=N/NC(=O)c2ccc(Cl)cc2)ccc1O | 1.69 | 50 (≈ 164 µM) | 1.924 | 84 (≈ 276 µM) | 1.255 | 18 (≈ 59.1 µM) | 2 | 100 (≈ 328 µM) | 1.4 | 25 (≈ 82 µM) | 1.531 | 34 (≈ 112 µM) | 32 (≈ 105 µM) | 0.5 (≈ 1.64 µM) | 160 (≈ 525 µM)
11 | O=C(N/N=C/c1ccc([N+](=O)[O-])cc1)c1ccc(Cl)cc1 | – | – | 1.301 | 20 (≈ 65.9 µM) | 1.301 | 20 (≈ 65.9 µM) | – | 100 (≈ 329 µM) | 1.3 | 20 (≈ 65.9 µM) | 1.531 | 34 (≈ 112 µM) | 45 (≈ 148 µM) | 1.8 (≈ 5.93 µM) | 85 (≈ 280 µM)
12 | Cc1ccc(/C=N/NC(=O)c2ccc(Cl)cc2)cc1 | – | 10 (≈ 36.7 µM) | 1.301 | 20 (≈ 73.3 µM) | 1.477 | 30 (≈ 110 µM) | 2.3 | 200 (≈ 733 µM) | 0.81 | 6.5 (≈ 23.8 µM) | 2.264 | 184 (≈ 675 µM) | 42 (≈ 154 µM) | 4.3 (≈ 15.8 µM) | 86 (≈ 315 µM)
13 | O=C(N/N=C/c1c(O)ccc2ccccc12)c1ccc(Cl)cc1 | 2 | 100 (≈ 308 µM) | 1.531 | 34 (≈ 105 µM) | 1.477 | 30 (≈ 92.4 µM) | 2 | 100 (≈ 308 µM) | 1.4 | 25 (≈ 77 µM) | 1.924 | 84 (≈ 259 µM) | 120 (≈ 369 µM) | 69 (≈ 212 µM) | 80 (≈ 246 µM)
14 | O=C(N/N=C/c1cccc([N+](=O)[O-])c1)c1ccc(Cl)cc1 | – | 10 (≈ 32.9 µM) | 1.531 | 34 (≈ 112 µM) | 1.301 | 20 (≈ 65.9 µM) | 1.69 | 50 (≈ 165 µM) | 1.4 | 25 (≈ 82.3 µM) | 1.301 | 20 (≈ 65.9 µM) | 30 (≈ 98.8 µM) | 22 (≈ 72.4 µM) | 124 (≈ 408 µM)
15 | CC1(C)S[C@@H]2[C@H](NC(=O)[C@H](N)c3ccc(O)cc3)C(=O)N2[C@H]1C(=O)O [AMOXICILLIN] | – | – | – | – | – | 12.5 (≈ 34.2 µM) | – | 100 (≈ 274 µM) | – | 200 (≈ 547 µM) | – | 12.5 (≈ 34.2 µM) | – | – | –
16 | C=CC1=C(C(=O)O)N2C(=O)[C@@H](NC(=O)/C(=N\OCC(=O)O)c3csc(N)n3)[C@H]2SC1 [CEFIXIME] | – | – | – | – | – | 50 (≈ 110 µM) | – | 400 (≈ 882 µM) | – | 400 (≈ 882 µM) | – | 50 (≈ 110 µM) | – | – | –
17 | O=C(O)Cc1ccccc1Nc1c(Cl)cccc1Cl [DICLOFENAC] | – | – | – | – | – | – | – | – | – | – | – | – | – | – | 71 (≈ 240 µM)
18 | OC(Cn1cncn1)(Cn1cncn1)c1ccc(F)cc1F [FLUCONAZOLE] | – | 400 (≈ 1310 µM) | – | 12.5 (≈ 40.8 µM) | – | – | – | – | – | – | – | – | – | – | –

Source: ChEMBL document CHEMBL3045220, “Design, characterization, computational studies, and pharmacological evaluation of substituted-N-[(1E) substituted-phenylmethylidene]benzohydrazide analogs” (Med Chem Res, 2013)
